Where two headings read alike, the source gives them in different places.
Assays:
[1] = test system: mannitol-specific mast cell-bound human IgE; assay: Skin prick test (SPT) in an allergic subject sensitized to mannitol; format: in vivo; settings: for Wheal diameter / Flare diameter: SPT, free compounds at 0.1%; for Wheal diameter: first figure of wheal/flare; for Flare diameter: second figure of wheal/flare
From the text: A D-mannitol-BSA and D-mannitol-KLH conjugate was used for skin prick test (SPT) in a mannitol-allergic subject, after obtaining Institutional Ethics Committee (IEC) clearance, and informed consent. D-Mannitol and its conjugates with BSA and KLH produced positive test whereas, D-mannose and control BSA and control KLH gave negative test (Table 2). L-Mannitol BSA conjugate was negative in SPT. All these samples were negative in SPT in 10 normal subjects.

[2] = test system: hapten affinity-purified D-mannitol-specific antibody; assay: ELISA inhibition: specificity and cross-reactivity of the hapten affinity-purified antibody, D-mannitol-KLH coated wells; format: binding, rabbit; settings: for Inhibition in ELISA (in words): comparison among inhibitors; for IC50: read-out: IC50 (concentration required for 50% inhibition in ELISA)
Procedure: FIG. 5 depicts specificity of the purified D-mannitol-specific antibody determined by ELISA inhibition. D-Mannitol-KLH conjugate (10 ng/well) was used for coating. The purified antibody (at 1:100 dilution) was preincubated with various inhibitors at different concentrations at 37° C. for 1 h before adding to the coated wells.
FIG. 6 depicts stereo specificity of the purified D-mannitol-specific antibody determined by ELISA inhibition. As L-mannitol is not available commercially, L-mannitol-BSA conjugate (prepared using L-mannose) was used as inhibitor and the inhibition was compared with that of D-mannitol-BSA conjugate.
To check for the formation of hapten-specific antibodies the antiserum was analyzed by non-competitive ELISA using the coated antigen format. The titer of the antiserum was determined by measuring the binding of serial dilutions of antiserum to coated mannitol-KLH conjugate. Flat bottom polystyrene microtiter wells were coated with mannitol-KLH conjugate at 1000, 100, 50, 10, and 1 ng per well in carbonate-bicarbonate buffer, pH 9.6 by incubating at 4° C. overnight. The wells were washed thrice between steps using PBS containing 0.05% Tween 20 (PBS-T). Blocking was done using 0.5% gelatin in PBS-T (blocking buffer) at 37° C. for 30 min. Antiserum diluted in blocking buffer (1:10, 1:100, 1:1000, 1:10000, 1:25000, 1:50000, 1:75000; 1:100000, 1:200000, 1:400000) was added (100 μL/well) and incubated at 37° C. for 2 h. Mouse anti-rabbit IgG-alkaline phoshatase secondary antibody (1:5000 dilution in blocking buffer, 100 μL/well) was added and incubated at 37° C. for 1 h. Color development was done using p-nitrophenyl phosphate (1 mg/mL, 100 μL/well) in diethanolamine buffer, pH 9.8, at 37° C. for 30 min. The reaction was stopped by adding 3 M NaOH (40 μL/well) and the absorbance at 405 nm was read in an ELISA reader.
The hapten affinity-purified D-mannitol-specific antibody was used for ELISA experiments to obtain the binding curves using D-mannitol-KLH conjugate for coating, and to study the specificity and cross-reactivity by ELISA inhibition experiments. Here, purified antibody was preincubated with various concentrations of inhibitors at 37° C. for 1 h before adding to coated microtiter wells. Other steps were as described under ‘Titration of antiserum’. Percent cross-reactivity for various inhibitors was calculated using the formula: […]

[3] = (IC50 for D-mannitol ÷ IC50 for test compound) × 100
[4] = free sugars/sugar alcohols as competitor, D-mannitol-KLH 10 ng/well coating, antibody 1:100, preincubated 37° C. 1 h

Compound	SPT result (positive/negative) [1]	Wheal diameter [1] [mm]	Flare diameter [1] [mm]	Percent cross-reactivity [2, 3] [%]	Inhibition in ELISA (in words) [2]	IC50 [2, 4] [mM]	Percent cross-reactivity ([2]; (IC50 for D-mannitol ÷ IC50 for test compound) × 100, listed as D-glucitol (sorbitol)) [%]	IC50 ([2]; BSA conjugates as inhibitor (stereospecificity, FIG. 6)) [mM]	Percent cross-reactivity ([2]; conjugate inhibitors, relative to D-mannitol-BSA conjugate) [%]
Control BSA: BSA incubated under the conjugation conditions, excluding D-mannose	negative	1	0						
NCCCC[C@H](N)C(=O)O [L-lysine]				2					
O=C[C@@H](O)[C@@H](O)[C@H](O)[C@H](O)CO [D-Mannose]	negative	1	0	4.9					
NCCc1c[nH]cn1 [Histamine base]		6	30						
N-(1-deoxy-D-mannitol-1-yl)n-carrier [D-Mannitol-KLH conjugate]	positive	4	25						
OC[C@@H](O)[C@@H](O)[C@H](O)[C@H](O)CO [D-Mannitol]	positive	5	25	100.0	maximum inhibition	5.25			
OC[C@@H](O)[C@@H](O)[C@H](O)[C@@H](O)CO [D-Glucitol]				8.8	higher compared to that by meso-erythritol and D-mannose	60	~9		
N-(1-deoxy-D-mannitol-1-yl)n-carrier [D-Mannitol-BSA conjugate]	positive	4	30					0.00064	100.00
OCC(O)C(O)CO (stereo not drawn) [meso-Erythritol]				4.9					
